Reference: ChEMBL document CHEMBL3872275, “Synthesis and antiproliferative activity of 2-chlorophenyl carboxamide thienopyridines” (Bioorg Med Chem Lett, 2017)

Assays:
[1] = Antiproliferative activity against human HCT116 cells assessed as cell growth at 1 uM after 3 days by thymidine incorporation assay relative to control; type: functional; details: HCT-116, 72 h, read-out: Activity
[2] = Antiproliferative activity against human MDA-MB-468 cells assessed as cell growth at 1 uM after 3 days by thymidine incorporation assay relative to control; type: functional; details: MDA-MB-468, 72 h, read-out: Activity
[3] = Antiproliferative activity against human MDA-MB-231 cells assessed as cell growth at 1 uM after 3 days by thymidine incorporation assay relative to control; type: functional; details: MDA-MB-231, 72 h, read-out: Activity
[4] = Growth inhibition of human HCT116 cells at 10 uM after 48 hrs by SRB assay relative to control; type: functional; details: HCT-116, 48 h, values are per cent of control
[5] = Growth inhibition of human MDA-MB-468 cells at 10 uM after 48 hrs by SRB assay relative to control; type: functional; details: MDA-MB-468, 48 h, values are per cent of control
[6] = Growth inhibition of human MDA-MB-231 cells at 10 uM after 48 hrs by SRB assay relative to control; type: functional; details: MDA-MB-231, 48 h, read-out: GI
[7] = Antiproliferative activity against human HCT116 cells after 3 days by thymidine incorporation assay; type: functional, cell-based; details: HCT-116, 72 h
[8] = Antiproliferative activity against human MDA-MB-468 cells after 3 days by thymidine incorporation assay; type: functional, cell-based; details: MDA-MB-468, 72 h
[9] = Antiproliferative activity against human MDA-MB-231 cells after 3 days by thymidine incorporation assay; type: functional, cell-based; details: MDA-MB-231, 72 h
[10] = Antiproliferative activity against human K562 cells after 3 days by thymidine incorporation assay; type: functional, cell-based; details: K562, 72 h

SMILES	growth at 1 µM [1] [%]	growth at 1 µM [2] [%]	growth at 1 µM [3] [%]	growth, % of control at 10 µM [4] [%]	growth, % of control at 10 µM [5] [%]	inhibition of growth at 10 µM [6] [%]	IC50 [7] [nM]	IC50 [8] [nM]	IC50 [9] [nM]	IC50 [10] [nM]
CC(=O)c1cc2c(nc1C)sc1c(=O)n(-c3ccccc3Cl)nnc12	98	96	103	–	–	–	–	–	–	–
O=C1CCCc2nc3sc4c(=O)n(-c5ccccc5Cl)nnc4c3cc21	97	91	97	96	86	94	–	–	–	–
CC(=O)OC1CCCc2nc3sc4c(=O)n(-c5ccccc5Cl)nnc4c3cc21 (stereo not drawn)	98	93	95	–	–	–	–	–	–	–
O=c1c2sc3nc4c(cc3c2nnn1-c1ccccc1Cl)CCCCC4	99	90	105	–	–	–	–	–	–	–
O=c1c2sc3nc4c(cc3c2nnn1-c1ccccc1Cl)C(O)CCC4 (stereo not drawn)	96	80	91	102	91	86	–	–	–	–
Nc1c(C(=O)Nc2ccccc2Cl)sc2nc3c(cc12)CCCCC3	94	81	101	–	–	–	–	–	–	–
Nc1c(C(=O)Nc2ccccc2Cl)sc2nc3c(cc12)CCCCCCCC3	91	78	104	–	–	–	–	–	–	–
Nc1c(C(=O)Nc2ccccc2Cl)sc2nc3c(cc12)C(=O)CCC3	99	94	104	76	25	70	–	–	–	–
CC(=O)OC1CCCc2nc3sc4c(=O)n(-c5ccccc5Cl)c(C)nc4c3cc21 (stereo not drawn)	92	64	82	–	–	–	–	–	–	–
O=c1c2sc3nc4c(cc3c2nnn1-c1ccccc1Cl)CCCC4	99	81	94	88	88	81	–	–	–	–
Nc1c(C(=O)Nc2ccccc2Cl)sc2nc3c(cc12)CCCC3	94	95	119	107	91	100	–	–	–	–
Nc1c(C(=O)Nc2ccccc2Cl)sc2nc3c(cc12)C(O)CCC3 (stereo not drawn)	11	14	30	30	26	58	616	546	675	431
Cc1nc2sc(C(=O)Nc3ccccc3Cl)c(N)c2cc1C(C)O (stereo not drawn)	97	96	108	–	–	–	–	–	–	–
Nc1c(C(=O)Nc2ccccc2Cl)sc2nc3c(cc12)CCCCCC3	71	100	56	–	–	–	–	–	–	–
CC(=O)c1cc2c(N)c(C(=O)Nc3ccccc3Cl)sc2nc1C	87	104	100	–	–	–	–	–	–	–
O=c1c2sc3nc4c(cc3c2nnn1-c1ccccc1Cl)CCCCCC4	90	85	92	–	–	–	–	–	–	–
CC(=O)OC1CCCc2nc3sc(C(=O)Nc4ccccc4Cl)c(N)c3cc21 (stereo not drawn)	3	7	10	–	–	–	184	181	201	192
O=c1c2sc3nc4c(cc3c2nnn1-c1ccccc1Cl)CCCCCCCC4	97	82	91	–	–	–	–	–	–	–
Cc1nc2sc3c(=O)n(-c4ccccc4Cl)nnc3c2cc1C(C)O (stereo not drawn)	100	118	100	–	–	–	–	–	–	–
